Experimental data from patent publication US10227561B2, “Methods and compositions for targeting progenitor cell lines” (Mandala Biosciences, LLC, priority 2012, dated 2019).
Like-named read-outs stand apart in the source and are kept apart here.

What was measured:
W10 cells [1] = assay: Peptide competition for phage binding; parameters: species or system human; details: for competition of the 2 peptides with each other for W10 cell binding: data not shown; for specificity of binding (lack of competition with scrambled peptides): free peptide against scrambled peptide
Experimental: Cells were plated at 100,000 cells/well in 24 well plates and incubated overnight. The corresponding synthetic peptide for each peptide phage or control peptides (unrelated or scrambled sequence peptide) were pre-incubated with cells at 5 nM or 5 μM in W10 growth media supplemented with 2% BSA for 30 min at 4° C. Peptide phages at 2×10^10 pfu/well were added to the peptide dilution and incubated with live cells for 1 h at 4° C. Peptide phage bound to cells was detected by immunostaining and fluorescence microscopy using anti-phage antibody on fixed and permeabilized cells or quantified by titration of phages recovered from cell lysates. The percentage of recovered phage for the competition assay was normalized by the recovered phage in the no-peptide control. Duplicate independent experiments were performed for competition experiments.

[2] = test system: hPS cells grown under mesoderm differentiation conditions; assay: Peptide targeted Qdot labeling of differentiating hPS cells; assay type: cell-based, human; details: 5 nM, 16 h at 37° C.
Experimental: (§1) FIG. 7A and FIG. 7B. Labeling of a differentiating pluripotent stem cells using peptide targeted Qdots. FIG. 7A: Selective peptide targeting of human embryonic stem cells (H9) that were differentiated into the three germ layers (see methods for protocols) for 6-8 days compared to undifferentiated control. Differentiated cells were incubated for 16 h at 37° C. with 5 nM of Qdot complexes, washed and imaged using a fluorescence microscope. Representative bright-field and fluorescent signal of W10 peptide Qdot complexes (red) are shown. FIG. 7B: Cells were stained with the following differentiation markers to verify the germ layer commitment: nestin for ectoderm, α-actinin for mesoderm, SOX17 for endoderm conditions and OCT3/4 for undifferentiated cells.
(§2) 2 μM of Qdot Streptavidin conjugate (Qdot605 ITK SA, Invitrogen, Q10001MP) were diluted in 100 μl of binding buffer (supplied with Qdot605 ITK SA) and incubated with 100-fold excess of biotinylated peptide on ice for 1 h. Uncoupled biotinylated peptide was removed from the mixture by incubating it with streptavidin magnetic beads equilibrated in PBS on ice for 30 min; placing the mixture on a magnetic stand to separate the beads and removed the complexes in solution. SA-beads were washed with PBS and combined with the recovered complexes. For control reactions, Qdots were incubated with binding buffer and treated in similar way as the peptide complexes. The concentration of Qdot-peptide complexes was estimated based on the final volume recovered. To label cells with the Qdot-complexes, 100,000 cells were plated on gelatin-coated wells of 24 well plates were incubated for 6 hours; 5 nM of Qdot-peptides in growth media was added to the cells and incubated for 16 h at 37° C. Cells were imaged after washes with PBS to remove the unbound Qdot-complexes.
(§3) For ectoderm differentiation conditions, embryoid bodies (EBs) were formed from colonies by manual techniques and grown in complete NPC media (DMEM-F12:Neurobasal media 1:1+50 μl/ml BIT9500 Serum substitute (Stemgent)+1% GlutaMax+1% penicillin-streptomycin+1 μl/ml B27 supplement (Invitrogen)+5 mM nicotinamide+5 μg/ml insulin+20 ng/ml EGF+20 ng/ml bFGF) in low attachment plates for 6 days; EBs were then plated on fibronectin-coated wells and grown for another 3 days. For mesoderm differentiation conditions, EBs were cultured as above except that media was DMEM-F12 with GlutaMax+20% FBS+1% NEAA+1% penicillin-streptomycin, and plated on 0.1% gelatin-coated wells. For endodermal differentiation conditions, undifferentiated H9 cells were transferred from colonies growing with MEFs to Geltrex™ (Life Technologies, Grand Island, N.Y.)-coated wells and grown for 2 days with MEF-conditioned media+4 ng/ml bFGF. From day 2, cells were grown for another 5 days in RPMI+0.5% FBS+100 ng/ml Activin A.

[3] = test system: hPS cells differentiated using culture conditions for definitive endoderm; assay: as above; assay type: cell-based, human; details: definitive endoderm conditions (high activin A, low serum); 5 nM, 16 h at 37° C.
Experimental: as §1, §2, §3

7PEND24 cell line = assay: Qdot peptide complex labeling, flow cytometry; assay type: cell-based, human; details: for cell labeling by peptide Qdot complexes: 7PEND24, in words
Experimental: (§4) FIG. 6. Selectivity of Qdot peptide complexes. Embryonic progenitor cell lines were labeled with Qdot complexes in their corresponding growth media and analyzed by flow cytometry as in (FIG. 5C). Percentage of labeled cells was calculated by setting up gates (allowing up to 1%) using the progenitor cell line labeled with untargeted Qdots and unlabeled cells. 10,000 events were recorded for each sample. Values are from triplicate experiments and shown as mean+/−standard error.
(§5) For flow cytometric analysis of labeled cells, cells were removed from the plates using TrypLE for 5 min at 37° C. Cells were resuspended in PBS, passed through strain top tubes and analyzed using flow cytometer. Control samples included unlabeled cells and cells labeled with untargeted Qdots. For each sample, 10,000 events were quantified. The LSRFortessa flow cytometer (BD Biosciences) was used with a violet laser excitation at 405 nm with a 605/23 bandpass filter to detect Qdot605 and the yellow laser excitation at 561 nm with a 670/30 bandpass filter to detect Qdot655. Cell autofluorescence was detected with the blue laser excited at 488 nm and a 510/25 bandpass filter.
as §2

4D20.8 cells = assay: Qdot peptide complex labeling, flow cytometry; assay type: cell-based, human
Experimental: as §4, §5, §2

E15 cells = assay: Qdot peptide complex labeling, flow cytometry; assay type: cell-based, human
Experimental: as §4, §5, §2

W10 progenitor cell line = assay: Immunofluorescent staining of bound phage; assay type: binding, human; details: peptide display phage, 2×10^10 pfu/well, live cells, 2 h at 37° C.
Experimental: The binding specificity of selected phages was determined by immunofluorescent staining of bound phage to the surface of W10 progenitor cell line. Cells were plated at 100,000 cells/well in 24 well plates and incubated overnight. Phages at 2×10^10 pfu/well were diluted in 0.5 ml of W10 growth media supplemented with 2% BSA and incubated with live cells for 2 h at 37° C. Cells were washed as for the selection experiments and fixed by 4% paraformaldehyde for 20 min at RT. Cells were washed twice with PBS and permeabilized by ice-cold MeOH for 15 min on ice. After another two washes, cells were blocked with 5% goat serum in 2% BSA in PBS for 1 h at RT or overnight at 4° C. Cells were incubated with 1:700 dilution of rabbit anti-Fd bacteriophage antibody (Sigma, B7786) in 2% BSA in PBS for 1 h at RT. Cells were washed with 2 ml of 1% BSA in PBS three times, and incubated with 1:1000 dilution of goat anti-rabbit AlexaFluor568 conjugated antibody (Invitrogen, A11011) in 1% BSA in PBS for 1 h at RT. Cells were counterstained with DAPI at 0.1 μg/ml after final washes and photographed by an Olympus IX71 fluorescence microscope. Images were taken and processed using MetaMorph (version 7.5.6.0, Molecular Devices), ImageJ (version 1.45b, National Institute of Health) or Photoshop (version 9.0.2, Adobe) software.

MW1 cell line = assay: Qdot peptide complex labeling, flow cytometry; assay type: cell-based, human
Experimental: as §4, §5, §2

SM30 cell line = assay: Qdot peptide complex labeling, flow cytometry; assay type: cell-based, human
Experimental: as §4, §5, §2

somatic cells = details: cited from earlier work
[4] = test system: 10 embryonic progenitor cell lines; assay: Selectivity of Qdot peptide complexes, panel of progenitor lines; assay type: cell-based, human; details: out of the 10 lines; peptide targeted Qdots, flow cytometry
Experimental: as §4, §5
2 μM of Qdot Streptavidin conjugate (Qdot605 ITK SA, Invitrogen, Q10001MP) were diluted in 100 μl of binding buffer (supplied with Qdot605 ITK SA) and incubated with 100-fold excess of biotinylated peptide on ice for 1 h. […]

W10 cells [5] = assay: Cell labeling with peptide targeted Qdot complexes (microscopy, flow cytometry); assay type: cell-based, human
Experimental: as §5
2 μM of Qdot Streptavidin conjugate (Qdot605 ITK SA, Invitrogen, Q10001MP) were diluted in 100 μl of binding buffer (supplied with Qdot605 ITK SA) and incubated with 100-fold excess of biotinylated peptide on ice for 1 h. Uncoupled biotinylated peptide was removed from the mixture by incubating it with streptavidin magnetic beads equilibrated in PBS on ice for 30 min; placing the mixture on a magnetic stand to separate the beads and removed the complexes in solution. SA-beads were washed with PBS and combined with the recovered complexes. For control reactions, Qdots were incubated with binding buffer and treated in similar way as the peptide complexes. […]

GWYWETPLDMFN (FROM PHAGE DISPLAY LIBRARY) [W10 R2 21, W10 selected 12-mer; tested as M13 display phage, C-terminal biotinylated free peptide and streptavidin Qdot complex]
competition for peptide phage binding (recovered phage, percentage of no-peptide control) (W10 cells [1]; C-terminal biotinylated free peptide at 5 nM or 5 μM, 4° C.): only significant at 5 μM | competition of the 2 peptides with each other for W10 cell binding (W10 cells [1]): can compete with each other | specificity of binding (lack of competition with scrambled peptides) (W10 cells [1]): sequence specific | cell labeling by Qdot complexes [2]: a few small patches of labeled cells | cell labeling by Qdot complexes [3]: a high percentage of cells were labeled | cell labeling by peptide Qdot complexes (7PEND24 cell line): high percentage binding | cell labeling by peptide Qdot complexes (4D20.8 cells): very little labeling | cell labeling by peptide Qdot complexes (E15 cells): very little labeling | binding of peptide phage detected by immunocytochemical staining (W10 progenitor cell line): strongest binding

YEFDNLLNRTLW (FROM PHAGE DISPLAY LIBRARY) [W10 R2 1, W10 selected 12-mer; tested as M13 display phage, C-terminal biotinylated free peptide and streptavidin Qdot complex]
cell labeling by Qdot complexes [2]: no labeling | cell labeling by Qdot complexes [3]: highly restricted to a small percentage of cells | cell labeling (MW1 cell line): more than 15% | cell labeling (7PEND24 cell line; 7PEND24): more than 15% | cell labeling (SM30 cell line): more than 15% | cell labeling by peptide Qdot complexes (4D20.8 cells): no complex uptake | cell labeling by peptide Qdot complexes (E15 cells): no complex uptake | binding of peptide phage detected by immunocytochemical staining (W10 progenitor cell line): strongest binding

CCCC(CCC)C(=O)O [valproic acid]
increase of reprogramming efficiency (somatic cells; compared to Yamanaka's traditional transcription factor method): 100 fold

GWVIDYDYYPMR (FROM PHAGE DISPLAY LIBRARY) [W10 R2 11, W10 selected 12-mer; tested as M13 display phage, C-terminal biotinylated free peptide and streptavidin Qdot complex]
competition of the 2 peptides with each other for W10 cell binding (W10 cells [1]): can compete with each other | specificity of binding (lack of competition with scrambled peptides) (W10 cells [1]): sequence specific | cell labeling by Qdot complexes [2]: a few small patches of labeled cells | cell labeling by Qdot complexes [3]: a high percentage of cells were labeled | cell labeling by peptide Qdot complexes (7PEND24 cell line): high percentage binding | cell labeling by peptide Qdot complexes (4D20.8 cells): very little labeling | cell labeling by peptide Qdot complexes (E15 cells): very little labeling | binding of peptide phage detected by immunocytochemical staining (W10 progenitor cell line): strongest binding

DWLWSFAPNVDT (FROM PHAGE DISPLAY LIBRARY) [W10 R3 18, W10 selected 12-mer; tested as M13 display phage, C-terminal biotinylated free peptide and streptavidin Qdot complex]
number of embryonic progenitor cell lines with a high percentage of cells bound [4]: 7 | percentage of cells labeled with peptide-Qdot complexes (W10 cells [5]; 5 nM Qdot complexes, 16 h at 37° C., gated on untargeted Qdots): 90% | fluorescent shift of labeled cells (W10 cells [5]; compared to untargeted Qdots): strong fluorescent shift | specificity of binding (lack of competition with scrambled peptides) (W10 cells [1]): sequence specific | cell labeling by Qdot complexes [2]: a few small patches of labeled cells | cell labeling by Qdot complexes [3]: a high percentage of cells were labeled | binding of peptide phage detected by immunocytochemical staining (W10 progenitor cell line): strongest binding

O=C(NCc1ccccc1)c1csc(Nc2ccncn2)n1 [Thiazovivin]
increase of reprogramming efficiency (somatic cells; Thiazovivin with the two previous chemicals (SB431412, PD0325901)): 200 fold
